Data reported in the Biogen ADME set (Fang et al. 2023).
In brackets after ≈: the same amount, converted by molar mass.

Settings: for aqueous solubility: pH 6.8

Structure (SMILES)	MDR1-MDCK efflux ratio	fraction unbound, human plasma	fraction unbound, rat plasma	intrinsic clearance, human liver microsomes	intrinsic clearance, rat liver microsomes	aqueous solubility
Nc1ncc(C(=O)NC2CN(C(=O)C3CC3)C2)c2ccc(-c3cccc(F)c3)nc12	18.1	0.042	0.0241	≤ 4.74 mL/min/kg	29.5 mL/min/kg	7.6 µg/mL (≈ 18.7 µM)
COc1ncccc1CNc1ncnc2c1cnn2C	0.967			≤ 4.74 mL/min/kg	28.8 mL/min/kg	46.6 µg/mL (≈ 172 µM)
CN(C)C1(CNC(=O)N2CCC=C(c3ccccc3)C2)CCOCC1	35.5			34.8 mL/min/kg	874 mL/min/kg	
c1ccc(-c2c(-c3ccc(OCCN4CCCC4)cc3)[nH]c3ncnc(NCC4SCCS4)c23)cc1	25			80.2 mL/min/kg	165 mL/min/kg	3.72 µg/mL (≈ 7.19 µM)
Cc1cccc(Oc2ncccc2N)c1C	0.588			11.7 mL/min/kg	308 mL/min/kg	45.3 µg/mL (≈ 212 µM)
CN1C(=O)N[C@H](Cc2c[nH]c3c(Cl)cccc23)C1=O				8.58 mL/min/kg	77.1 mL/min/kg	
C[C@@H](c1ccc2ccc(O[C@H]3CC[C@@H](C(F)(F)F)CC3)c(C(F)(F)F)c2c1)N1C2CCC1CC(C(=O)O)C2 (stereo partly drawn)	51.8			7.58 mL/min/kg	35.6 mL/min/kg	73.2 µg/mL (≈ 135 µM)
Cc1ccc2[nH]c(CNC(=O)c3cc(C(F)F)nn3C)nc2c1C				19.9 mL/min/kg	186 mL/min/kg	
CC(C)Oc1cccc(C(C)NC(=O)c2ccnc(-n3cncn3)c2)c1 (stereo not drawn)	1.81			70.8 mL/min/kg	258 mL/min/kg	
CN(CC(N)=O)Cc1cc2c(cc1Br)OCO2	0.761			10.4 mL/min/kg	324 mL/min/kg	69.7 µg/mL (≈ 231 µM)
CN(Cc1cccc(Cl)c1Cl)Cc1cc(=O)n(C)c(=O)n1C	0.829			191 mL/min/kg	2760 mL/min/kg	
Cc1ccc(CNC/C=C/c2ccccc2)cn1	0.387			28.5 mL/min/kg	410 mL/min/kg	29.1 µg/mL (≈ 122 µM)
Cc1cccc(NCCN2C(=O)CCC2=O)n1	0.667			≤ 4.74 mL/min/kg	49.9 mL/min/kg	
Cc1nc(Cc2ccccc2)sc1C(=O)Nc1cccc(-c2ccn[nH]2)c1	2.86			30.4 mL/min/kg	406 mL/min/kg	
CN(Cc1ccc(Cl)cc1)C(=O)c1ccc(-n2ccnc2)nc1	1.08			≤ 4.74 mL/min/kg	46.4 mL/min/kg	65.1 µg/mL (≈ 199 µM)
CCNc1nc(-c2cccnc2)nc(C)c1C	0.577			49.7 mL/min/kg	69.8 mL/min/kg	
O=C(NCCc1ccccc1)c1ccc(NC(=O)N2CCCCc3ccccc32)cc1	2.11	0.0119		256 mL/min/kg		
Cn1ncnc1COc1nn2c(-c3c(F)cccc3F)nnc2cc1C1CCC1	73.4			≤ 4.74 mL/min/kg	40.8 mL/min/kg	41.4 µg/mL (≈ 104 µM)
COc1cc2nn(CCC(C)(C)O)cc2cc1NC(=O)c1ccn(C(F)F)n1	10.2			18.7 mL/min/kg	≤ 10.7 mL/min/kg	
N#Cc1ccccc1OCc1csc(-c2ncccn2)n1	0.59			31.1 mL/min/kg	119 mL/min/kg	12.7 µg/mL (≈ 43.1 µM)

Structure (SMILES)	MDR1-MDCK efflux ratio	fraction unbound, human plasma	fraction unbound, rat plasma	intrinsic clearance, human liver microsomes	intrinsic clearance, rat liver microsomes	aqueous solubility
COc1cccc(-c2nnn(Cc3cc(F)cc4cccnc34)n2)c1	0.486					0.14 µg/mL (≈ 0.417 µM)
CCC(C)(C)c1ccc(Oc2ccc(NC3=NN(c4ccccc4)C(=O)C3)cc2)cc1				7.61 mL/min/kg	17.1 mL/min/kg	
COc1ccc(-n2cc3c(c2-c2ccccc2Br)c(=O)n(C)c(=O)n3C)cc1	0.946			37.5 mL/min/kg	521 mL/min/kg	4.92 µg/mL (≈ 11.2 µM)
CC(C)(O)CCn1cc2cc(NC(=O)c3cccc(C(F)F)n3)c(OCC3COC3)cc2n1	11.7			7.8 mL/min/kg	72.1 mL/min/kg	
CN(C)C(C)(C)CNc1ncnc2ccccc12	2.86			≤ 4.74 mL/min/kg	293 mL/min/kg	39.1 µg/mL (≈ 160 µM)
Cc1nc(Nc2ccc(F)cc2)nc2c1ncn2-c1ccc(F)cc1	0.388					0.14 µg/mL (≈ 0.415 µM)
O=C(Nc1ccc(Cl)nc1)NC1CCN(C2CCCC2)CC1	20.9			≤ 4.74 mL/min/kg	≤ 10.7 mL/min/kg	
COc1ccc(Nc2nc(Cl)cc(Cl)n2)cc1				188 mL/min/kg	170 mL/min/kg	
Cc1cc(C)n2nc(C)c(C(=O)NCC3CC3)c2n1	0.725			46.7 mL/min/kg	106 mL/min/kg	
COCCc1ccc(OCC(O)CNC(C)C)cc1 (stereo not drawn)			1			
CCC(C)(C)c1ccc(Oc2ccc(NC(=O)CSc3cccc[n+]3[O-])cc2)cc1	2.2					0.45 µg/mL (≈ 1.06 µM)
COCCc1noc(CN2CC(c3ccccc3)(c3ccccc3)CCC2=O)n1	2.43	0.147	0.179	211 mL/min/kg	2010 mL/min/kg	
NCc1ccc(Oc2ccccc2)nc1				20.7 mL/min/kg	50.5 mL/min/kg	22 µg/mL (≈ 110 µM)
CC(c1ccccc1)N1CC(C(=O)N2CCC(n3c(=O)[nH]c4ccccc43)CC2)CC1=O (stereo not drawn)				32.1 mL/min/kg	454 mL/min/kg	71.7 µg/mL (≈ 166 µM)
CC(=O)NCC1CCN(C(=O)c2ccc(C)nc2)CC1	130			≤ 4.74 mL/min/kg	≤ 10.7 mL/min/kg	54 µg/mL (≈ 196 µM)
CN(C)C1=N[C@@H]2[C@@H](O)[C@H](O)[C@@H](CO)O[C@@H]2S1	0.274			≤ 4.74 mL/min/kg	≤ 10.7 mL/min/kg	36.7 µg/mL (≈ 148 µM)
Cc1noc(NCc2ccc(F)cc2C)n1	0.589			≤ 4.74 mL/min/kg	68.3 mL/min/kg	
O=C1CCC(=O)N1Cc1nc(Cc2ccccc2)cs1				≤ 4.74 mL/min/kg	145 mL/min/kg	
CN(C)C1(CNC(=O)Cn2ccc(=O)cc2)CCCCC1	0.273			5.3 mL/min/kg	16.1 mL/min/kg	

Other lines, results leading:

MDR1-MDCK efflux ratio	fraction unbound, human plasma	fraction unbound, rat plasma	intrinsic clearance, human liver microsomes	intrinsic clearance, rat liver microsomes	aqueous solubility	Structure (SMILES)
33.1	0.0395	0.119	149 mL/min/kg	572 mL/min/kg		COCC(=O)N1CCC(Cc2ccccc2-c2cccc(F)c2)(C(=O)NC(C)C)CC1
0.65	0.0145		≤ 4.74 mL/min/kg			Cc1nnc(-c2ccc(N3CCC(Oc4cc(F)ccc4Cl)CC3)nn2)o1
			158 mL/min/kg	906 mL/min/kg	41.7 µg/mL (≈ 148 µM)	O=C(NCCc1cccc2cccnc12)C1CCCCC1
2.69			27.3 mL/min/kg	374 mL/min/kg	33.2 µg/mL (≈ 95 µM)	Cn1cc(CN2CCN(c3ccccc3O)CC2)c(-c2ccncc2)n1
0.363			94.3 mL/min/kg	1600 mL/min/kg		CN1CCN(c2oc(-c3cccc4ccccc34)nc2C#N)CC1
			≤ 4.74 mL/min/kg	1850 mL/min/kg		COc1ccc(NC(=O)CN2CCCC2)cc1
4.21			≤ 4.74 mL/min/kg	42.3 mL/min/kg		CS(=O)(=O)NC1CCCN(c2nc3ccccc3o2)C1 (stereo not drawn)
1.74			12.5 mL/min/kg	114 mL/min/kg		OCCN1CCN(c2ccnc3ccc(Br)cc23)CC1
6.94			19.7 mL/min/kg	540 mL/min/kg	49.7 µg/mL (≈ 146 µM)	Cc1nccn1-c1cncc(N2CCN(CC3CCCC3)C(=O)C2)n1
0.688			22.2 mL/min/kg	229 mL/min/kg		Cc1ccc(O)c(CN2CCC(c3nc4ccccc4o3)CC2)n1
0.507			128 mL/min/kg	2020 mL/min/kg	52.9 µg/mL (≈ 171 µM)	N#Cc1cccc(CN2CCOC[C@H](Oc3ccccc3)C2)c1
	1	1	≤ 4.74 mL/min/kg	16.1 mL/min/kg		COCCNC(=O)c1ccnc(C2CCNCC2)c1
2.52			4.89 mL/min/kg	≤ 10.7 mL/min/kg	51.2 µg/mL (≈ 174 µM)	Cc1nn(-c2ccccn2)c2nc(C3CC3)cc(C(=O)O)c12
1.13			26.6 mL/min/kg	269 mL/min/kg		CCCCN1CCN(C(=O)c2cccc(-c3ccc(CO)cc3)c2)CC1
1.76			≤ 4.74 mL/min/kg	50.1 mL/min/kg		CN1CCC(CNC(=O)c2ncoc2-c2ccc(F)cc2)CC1
15.9			≤ 4.74 mL/min/kg	≤ 10.7 mL/min/kg	48.1 µg/mL (≈ 172 µM)	Cc1cccnc1NC(=O)CCn1cnc2ccccc21
0.527			7.3 mL/min/kg	20.5 mL/min/kg	22.2 µg/mL (≈ 89.4 µM)	CCC(CC)NC(=O)c1ccc2ncsc2c1
8.14			≤ 4.74 mL/min/kg	17.8 mL/min/kg	8.97 µg/mL (≈ 26.3 µM)	CSc1ncccc1C(=O)Nc1ccc(N2CCCCC2=O)cc1
